# Reference: patent publication US7708799B2, “Dithiocarbamates and phosphite formulations” (priority 2005, dated 2010)
# Tested on: Spores of the fungus Mycosphearella sp
# Assay: Spore germination test on amended water agar plates
# Format: cell-based
# Details: agar amended with mancozeb alone at 100 ppm; 4×10^5 spores; 12 hours incubation
# Procedure: The flowable Calcium formulation (named Calciphite) combination plus Mancozeb as described in the above example was tested for its ability to inhibit spore germination as compared to Mancozeb. Water agar plates were prepared and amended with the Calciphite/mancozeb combination (50 ppm) or mancozeb alone (100 ppm). Spores of the fungus Mycosphearella sp at a spore concentration of 4×10^5 were sprayed onto the surface of the plates and incubated for 12 hours after which the plates were assessed for germination.
substance,measurement,value
mancozeb,% spore germination,81%
